Results from US20160223547A1, “MARKER FOR PREDICTING METASTASIS OF BREAST CANCER” (priority 2013, published 2016).

Assays:
[1] = test system: brain metastases of breast cancer induced by BRV5CA1 cells; experiment: Therapeutic effect on brain metastases induced by BRV5CA1 cells, luciferase emission monitored in vivo; conditions: female Athymic Nude-Foxn1nu mice, 50 mg/kg/d on consecutive days, after a week of treatment
Method: The therapeutic effect of lenalidomide was analyzed by treating the brain metastases of breast cancer induced by injecting BRV5CA1 cells labeled with the luciferase gene into female Athymic Nude-Foxnlnu mice (Martinez-Aranda A., Int. J. Mol. Sci. 2013, 14(4), 8306-8327). The treatment groups N=8 (lenalidomide 50 mg/kg/d on consecutive days) and the control group, in which carrier was injected, were established. The start of the treatment was established on day 14 after the graft and treatment was maintained for 15 days until the end of the experiment. The treatment was started on day 13 after induction and progression of the growth of metastasis was monitored in vivo by quantifying luciferase emission (photons per second) (FIG. 7). After a week of treatment, the difference in growth of the metastasis between the control group and the treated group was significant.

FN14 = experiment: Immunohistochemistry of FN14 expression in triple-negative breast carcinoma grafts treated with lenalidomide; assay type: in vivo; conditions: triple-negative breast carcinoma graft in immunosuppressed mice, vs carrier control, anti-FN14 immunohistochemistry
Description: Experimental tumors induced in the breast of immunosuppressed mice by implanting small biopsy fragments (2×2 mm) from patients with triple-negative breast carcinoma. An example of one of these grafts treated with lenalidomide (LND) with respect to the same graft treated with the carrier (control) is shown.
For expression studies, the immunohistochemistry technique with specific anti-FN14 antibodies (sc-27143, C-13, Santa Cruz Biotechnology) at a concentration of 1/3000 was used. Kidney and heart tissues were used as control tissues to view the expression in the cell membrane. The antigens were exposed by heating the preparations in a pressure cooker for 7 minutes in the suitable citrate buffer (Sanz et al., Am J Pathol, 179(2):564-579, 2011).
The primary antibody was diluted in the Dako diluent buffer (Dako, Glostrup, Denmark; Carpinteria, Calif.): Tris buffer, pH 7.2, 15 mmol/1 of NaN3. The LSAB peroxidase system (Dako), including biotinylated secondary antibody, followed by conjugated streptavidin, was used along with the ultraView detection kit (Ventana Benchmark XT, Roche, Tucson, Ariz.). The tumors were classified in three categories considering staining intensity: negative, weakly positive and strongly positive. Only those which are strongly positive in more than 30% of the tumor cells were considered with the overexpressed protein.

[2] = test system: BRV5CA1 cells (clones 424-2 and 424-8, silenced GRP94; Pool, non-silenced GRP94); experiment: MTT cytotoxicity assay of taxotere on brain metastatic breast cancer cells with silenced or non-silenced GRP94; assay type: cell-based; conditions: clones 424-2 and 424-8 (silenced GRP94) vs pool, 1-10 ng/ml, 72 h
Method: To […], three sublines were used: Clones: 424-2 and 424-8 (silenced GRP94 [shGRP94]) and a Pool (non-silenced GRP94), from the metastatic variant BRV5Ca1.
For the cytotoxicity assay, each cell type was seeded in triplicate in a 96-well plate (Costar® 3596; Corning Incorporated) at a density of 6000 cells/well in 50 μL of complete medium (DMEM/F12 GIBCO® with serum). Twenty-four hours after seeding the cells, they were treated with taxotere (docetaxel >99%; LC Laboratories (www.LCLabs.com); Stock 200 mg/ml), at different concentrations in triplicate: 10-5-2.5-1 and 0 ng/ml, in a volume of 50 μL/well. Seventy-two hours after the start of the treatment, a cell viability assay MTT was carried out in which survival expressed as a percentage (%) was analyzed (FIG. 2). […]
After this time, the medium was removed from the wells and 50 μL of MTT [3-(4,5-dimethylthiazol-2-yl)-2,5-diphenyltetrazolium bromide; Sigma-Aldrich) were added per well, at a concentration of 5 mg MTT/ml of medium without serum. […] It was left to stir for 10-15 minutes (in the dark) and was then analyzed in the microplate spectrophotometer (PowerWave™ XS; BioTek) at a wavelength of 540 nm.
Absorbance values (OD) were obtained in triplicate for each of the treatment concentrations established. The calculated mean was expressed in reference to the control thereof (0 ng/ml), considered as the maximum survival value (100%).

[3] = test system: xenotransplant of breast cancer metastasizing to the brain; experiment: Effect of taxotere on growth of intramammary xenografts; assay type: in vivo; conditions: Athymic Nude-Foxn1nu mice, 15 mg/kg/day every 4 days for two weeks, vs carrier control, p=0.003
Method: A xenotransplant of breast cancer metastasizing to the brain provided by Dr. Eva Gonzalez was used to induce breast tumors in immunosuppressed Athymic Nude-Foxnlnu mice weighing 22-28 grams acquired from Charles-River Laboratories (Wilmington, Mass.) and to establish groups that are treated or not treated with taxotere following a previously established standard protocol of 15 mg/kg/day every 4 days for two weeks (Bin Gu et al., Carcinogenesis, 2004). The 2 mm^3 tumor fragment was implanted in the inguinal breast of female mice and 10 days were waited out for the graft to progress. After evaluating the volume of the tumor, treatment with taxotere was started, considering in each case a control group which was treated with the drug carrier.

SMILES: Nc1cccc2c1CN(C1CCC(=O)NC1=O)C2=O (centres unmarked) [lenalidomide]
- difference in growth of the metastasis between control group and treated group (luciferase emission, photons per second) [1]: significant
- expression of FN14 in tumor graft (FN14): inhibition of the expression of FN14

SMILES: CC(=O)O[C@H]1C(=O)[C@@]2(C)[C@H]([C@H](OC(=O)c3ccccc3)[C@]3(O)C[C@H](OC(=O)[C@H](O)[C@@H](NC(=O)c4ccccc4)c4ccccc4)C(C)=C1C3(C)C)[C@]1(OC(C)=O)CO[C@@H]1C[C@@H]2O [taxol, 11-methano-5H-cyclodeca[3,4]benz[1,2-b]oxete benzenepropanoic acid deriv.]
- survival of cells after treatment (percentage of survival with respect to the control) [2]: lower survival

SMILES: CC(=O)O[C@@]12CO[C@@H]1C[C@H](O)[C@@]1(C)C(=O)[C@H](O)C3=C(C)[C@@H](OC(=O)[C@H](O)[C@@H](NC(=O)OC(C)(C)C)c4ccccc4)C[C@@](O)([C@@H](OC(=O)c4ccccc4)[C@H]21)C3(C)C [taxotere, N-debenzoyl-N-tert-butoxycarbonyl-10-deacetyl taxol]
- tumor growth (normalized volume divided by the initial volume) [3]: tendency to grow less than that of the control
- survival of cells after treatment (percentage of survival with respect to the control) [2]: significantly reduces the survival
